Several values for one entry are separate records, joined by “and”; a condition that tells them apart may be missing. Equal values may be shown once. Entries after “also recorded” stand apart in the source; their conditions may differ. Read-outs that look alike come from different tables or passages of the source.
Legend:
anti-dsDNA antibodies = assay: SLE (lupus) model: anti-dsDNA antibodies in serum by ELISA; format: in vivo, MRL/MpJ-Faslpr mice
Method: Female MRL/MpJ-Faslpr mice (The Jackson Laboratory) were used to assess the efficacy of Compound A in treating lupus. Starting when animals were 10 weeks of age, protein concentration in urine was measured using urine dipsticks.
At the start of the study, each group in the study had two animals that were 9 weeks old, and all others were 10 weeks old. Dosing of all animals with the test compounds began when the older animals were 11 weeks old. […] […] Dosing was at a consistent time each dosing day throughout the study.
Compound A may be formulated as illustrated in Experimental Method A (see Table 2E.). […] A stock solution of Compound A in DMSO (stock solution concentration of Compound A of 40 mg/mL) was prepared and aliquots for weekly preparations were frozen at −20° C. On each preparation day, a stock solution aliquot was thawed and diluted with other vehicle components to the desired concentration. Formulated Compound A and vehicle were at room temperature for dosing.
The study began when the older animals were 11 weeks old, and concluded when the older animals were 19 weeks old. Body weight was recorded once a week, with the exception of two weight measurements taken the first week of the study (when the older animals were 11 weeks old). Proteinuria was measured in the urine of animals with urine dipsticks once a week, starting when the older animals were 10 weeks old. […] Blood samples were taken retro-orbitally at the start of the study to establish a baseline (15 animals, 3 per group), and when the older animals were 16 weeks (all animals) and when animals were 19 weeks (all animals) at the conclusion of the study. Blood urea nitrogen (BUN) was measured in all animals at study termination in blood samples. After blood collection, animals were euthanized, perfused with PBS, and the left kidneys were collected and weighed and fixed in 10% buffered formalin. Left kidneys were then processed to a formalin-fixed, paraffin-embedded (FFPE) block, and histology was analyzed in Periodic Acid-Schiff-stained sections (1 section per slide), using the criteria described in Alperovich et al., Lupus, 16:18-24 (2007). Right kidneys were weighed and snap-frozen at −80° C. Spleens were also collected and weighed. SLE in animals treated with a BET inhibitor and vehicle.
Anti-dsDNA antibody test measures the amount of antibody to double-stranded deoxyribonucleic acid (anti-dsDNA) that may be present in the blood. Anti-dsDNA antibodies are highly specific markers of SLE as these antibodies are not thought to be present in other kinds of autoimmune disorder.

[1] = UUO study: serum urea levels; format: in vivo; conditions: UUO rats
From the text: Tables 30A-30B and FIG. 27A depict serum urea levels in sham rats (black bar), UUO rats treated with vehicle (grey bar), and UUO rats treated with Compound A (white bar).

renal fibrosis (UUO) = assay: Unilateral Urethral Obstruction (UUO) model of renal fibrosis: clinical histopathology scores; format: in vivo, rats; design: key to Glomerulosclerosis clinical score / Interstitial nephritis clinical score / Collagen fiber deposition clinical score / Nephropathy clinical score: 0=no more or absence; 1=low; 2=moderate; 3=high; 4=severe
Method: Starting on Day 0, animals in group 2 were administered daily doses of the vehicle for 14 days. Starting on Day 0, animals in group 3 were administered daily doses of Compound A (10 mg/kg) for 14 days. A design of the UUO study is depicted in FIG. 24.
Blind clinical nephropathy scores were conducted for all animals in the study. Glomerulosclerosis, interstitial nephritis, collagen fiber deposition, and nephropathy were each assessed for all experimental rats, and a total clinical score was determined for each rat. The scoring system represented the degree or percentage of lesions in the whole kidney. Clinical score assessments were performed on Day 14.

[2] = UUO study: plasma concentration of Compound A; format: in vivo, rats; conditions: for concentration at 4 h: rat, plasma, oral, 10 mg/kg
UUO study: body weight = format: in vivo; conditions: UUO rats; for Body Weight: 10 mg/kg QD, 10 mg/kg; for Mean + SD of Body Weight: group 3, group mean
[3] = UUO rats, individual animals 1-8

SMILES: Cn1cc(-c2ccccc2)c(-c2cn(C)c(=O)c3[nH]c(-c4cnn(C(F)(F)F)c4)cc23)cc1=O [Compound A, 6-methyl-4-(1-methyl-2-oxo-5-phenyl-1,2-dihydropyridin-4-yl)-2-(1-(trifluoromethyl)-1H-pyrazol-4-yl)-1,6-dihydro-7H-pyrrolo[2,3-c]pyridin-7-one]
- Anti-dsDNA Antibodies in serum, mean (anti-dsDNA antibodies; Compound A 1 mg/kg PO QD, Week 16): 240 units/mL
- Anti-dsDNA Antibodies in serum, mean (anti-dsDNA antibodies; Compound A 1 mg/kg PO QD, Week 19): 149 units/mL
- Anti-dsDNA Antibodies in serum, mean (anti-dsDNA antibodies; Compound A 3 mg/kg PO QD, Week 16): 112 units/mL
- Anti-dsDNA Antibodies in serum, mean (anti-dsDNA antibodies; Compound A 3 mg/kg PO QD, Week 19): 94 units/mL
- Anti-dsDNA Antibodies in serum, mean (anti-dsDNA antibodies; Compound A 10 mg/kg PO QD, Week 16): 47 units/mL
- Anti-dsDNA Antibodies in serum, mean (anti-dsDNA antibodies; Compound A 10 mg/kg PO QD, Week 19): 57 units/mL
- Anti-dsDNA antibodies in serum (anti-dsDNA antibodies; Week 16, 1 mg/mL): did not appear to be effective
- Anti-dsDNA antibodies in serum (anti-dsDNA antibodies; Week 16 and Week 19, 3 mg/mL): positive effect in reducing levels
- Anti-dsDNA antibodies in serum versus Vehicle group (anti-dsDNA antibodies; Week 16 and Week 19, Compound A (10 mg/mL) and Cyclophosphamide): effective in reducing levels to well below that seen with the Vehicle administered group
- Anti-dsDNA antibodies in serum (anti-dsDNA antibodies; Week 19, 1 mg/mL): effective in reducing the levels
- Serum urea levels, difference between experimental groups ([1]; 10 mg/kg): No significant differences
- Serum Urea (Mean + S.D.) ([1]; 10 mg/kg QD): 5.67 ± 0.71 mmol/L
- Serum Urea ([1]; Compound A 10 mg/kg QD, individual animals, 10 mg/kg): 5.72 mmol/L and 5.03 mmol/L and 5.64 mmol/L and 6.28 mmol/L and 5.22 mmol/L and 4.77 mmol/L and 6.97 mmol/L and 5.71 mmol/L
- Total histology score (FIG. 26D) (renal fibrosis (UUO); UUO + Compound A (10 mg/kg) relative to sham treated animals): marked decrease in total histology score
- Collagen fiber deposition clinical score (renal fibrosis (UUO); [3]): 1 (4×) and 2 (3×) and 3
- Glomerulosclerosis clinical score (renal fibrosis (UUO); [3]): 0
- Interstitial nephritis clinical score (renal fibrosis (UUO); [3]): 2 (4×) and 3 (4×)
- Nephropathy clinical score (renal fibrosis (UUO); [3]): 1 and 2 (7×)
- Total score (renal fibrosis (UUO); [3]): 4 and 7 (3×) and 5 (3×) and 8
- Clinical histopathology scores / histological indicators of fibrosis relative to UUO + vehicle (renal fibrosis (UUO); UUO rats, 10 mg/kg PO QD, 10 mg/kg): reduced levels of interstitial nephritis, collagen fiber deposition, and nephropathy, as well as total clinical scores; also recorded: reduced the severity of all histological indicators of fibrosis; also recorded: ameliorates clinical symptoms associated with UUO
- Concentration ([2]; UUO + Compound A, male SD rats, time 4 h, individual Test Subjects 1-8): 220 ng/mL and 318 ng/mL and 133 ng/mL and 215 ng/mL and 132 ng/mL and 194 ng/mL and 198 ng/mL and 195 ng/mL
- concentration at 4 h ([2]; male, Sprague-Dawley, UUO + Compound A, male SD rats, time 4 h, mean of 8 test subjects, read-out: Concentration, Mean): 201 ng/mL
- concentration at 4 h ([2]; po, four hours after final treatment, read-out: Mean plasma concentration): 201 ng/mL
- Body Weight (UUO study: body weight; individual animals 1-8, Day 0): 304 g (2×) and 308 g and 291 g and 306 g and 307 g
- Body Weight (UUO study: body weight; individual animals 1-8, Day 1): 290 g and 296 g and 304 g and 281 g and 279 g and 298 g
- Body Weight (UUO study: body weight; individual animals 1-8, Day 2): 283 g and 294 g and 297 g and 281 g and 275 g and 290 g
- Body Weight (UUO study: body weight; individual animals 1-8, Day 3): 286 g and 292 g and 298 g and 280 g and 276 g and 288 g
- Body Weight (UUO study: body weight; individual animals 1-8, Day 4): 285 g and 288 g and 301 g and 277 g and 275 g and 294 g
- Body Weight (UUO study: body weight; individual animals 1-8, Day 5): 283 g and 290 g and 300 g and 278 g and 268 g and 285 g
- Body Weight (UUO study: body weight; individual animals 1-8, Day 6): 283 g and 290 g (2×) and 297 g and 281 g and 266 g and 275 g
- Body Weight (UUO study: body weight; individual animals 1-8, Day 7): 290 g and 285 g and 303 g and 280 g and 260 g and 299 g and 274 g
- Body Weight (UUO study: body weight; individual animals 1-8, Day 8): 295 g and 284 g and 304 g and 279 g and 262 g and 303 g and 275 g
- Body Weight (UUO study: body weight; individual animals 1-8, Day 9): 305 g and 284 g (2×) and 310 g and 279 g and 304 g and 275 g
- Body Weight (UUO study: body weight; individual animals 1-8, Day 10): 300 g and 284 g and 311 g and 277 g and 270 g and 304 g
- Body Weight (UUO study: body weight; individual animals 1-8, Day 11): 298 g and 297 g and 311 g and 278 g and 271 g and 315 g
- Body Weight (UUO study: body weight; individual animals 1-8, Day 12): 295 g and 291 g and 319 g and 283 g and 271 g and 315 g
- Body Weight (UUO study: body weight; individual animals 1-8, Day 13): 294 g and 293 g and 318 g and 286 g and 270 g and 320 g
- Body Weight (UUO study: body weight; individual animals 1-8, Day 14): 298 g and 296 g and 322 g and 291 g and 281 g and 331 g
- Body Weight (UUO study: body weight; individual animals 1-8, Day −1): 284 g and 304 g and 299 g and 289 g and 297 g and 301 g
- Mean + SD of Body Weight (UUO study: body weight; Day 0): 302 ± 6 g
- Mean + SD of Body Weight (UUO study: body weight; Day 1): 288 ± 11 g
- Mean + SD of Body Weight (UUO study: body weight; Day 2): 285 ± 8 g
- Mean + SD of Body Weight (UUO study: body weight; Day 3): 284 ± 9 g
- Mean + SD of Body Weight (UUO study: body weight; Day 4): 283 ± 11 g
- Mean + SD of Body Weight (UUO study: body weight; Day 5): 281 ± 11 g
- Mean + SD of Body Weight (UUO study: body weight; Day 6): 282 ± 10 g
- Mean + SD of Body Weight (UUO study: body weight; Day 7): 284 ± 14 g
- Mean + SD of Body Weight (UUO study: body weight; Day 8): 285 ± 15 g
- Mean + SD of Body Weight (UUO study: body weight; Day 9): 291 ± 13 g
- Mean + SD of Body Weight (UUO study: body weight; Day 10): 289 ± 14 g
- Mean + SD of Body Weight (UUO study: body weight; Day 11): 292 ± 17 g
- Mean + SD of Body Weight (UUO study: body weight; Day 12): 294 ± 17 g
- Mean + SD of Body Weight (UUO study: body weight; Day 13): 296 ± 17 g
- Mean + SD of Body Weight (UUO study: body weight; Day 14): 300 ± 18 g
- Mean + SD of Body Weight (UUO study: body weight; Day −1): 294 ± 7 g
- Body weight course (UUO study: body weight; 10 mg/kg daily, 14-day study): slight weight loss over the course of the 14-day study before regaining their original weight
